Entries after “also recorded” stand apart in the source; their conditions may differ.
Key:
[1] = tested on: HCLE cells; assay: MTT cell viability, titration of osmolyte concentration in isotonic medium; format: cell-based, human
Procedure: An immortalized human corneal limbal epithelial (HCLE) cell line (a kind gift from Ilene Gipson, Schepens Eye Research Institute, Boston, Mass.) was used in the study. HCLE cells were cultured as previously described (Garrett et al. Invest Ophthalmol Vis Sci 2008; 49:4844-4849). Briefly, the cells were maintained on plastic at 2×10^4/cm^2 in a keratinocyte serum-free medium (K-SFM; Invitrogen-Gibco, Grand Island, N.Y.), supplemented with 25 μg/mL bovine pituitary extract, 0.2 ng/mL epidermal growth factor (EGF; Invitrogen, Mount Waverley, VIC, Australia), and 0.4 mM CaCl2 and were grown at 37° C. in a 5% carbon dioxide atmosphere. To enhance nutrient composition, the cultures were switched at approximately 50% confluence to a 1:1 mixture of K-SFM and low calcium DMEM/F12 (Invitrogen), to achieve confluence. All the experiments involving the culture of HCLE cells were performed at 37° C. in a 5% carbon dioxide atmosphere unless otherwise indicated.
To determine the optimal concentration of betaine for use in the osmoprotective studies, betaine (Sigma-Aldrich, St. Louis, Mo.; 1.0-200 mM) was prepared in culture medium. […] Following treatment with betaine, cell viability was assessed using the 3-[4,5-dimethylthiazol-2-yl]-2,5-diphenyltetr azoliumbromide (MTT) cell survival assays (Promega, Madison, Wis.).

[2] = tested on: ICES-induced murine dry eye model; assay: Corneal fluorescein staining in ICES-induced murine dry eye model; format: in vivo, C57BL/6 mice; conditions: for corneal staining from Day 21 to Day 35: Schedule 2, within-group change
Description: A total of 110 female C57BL/6 mice (age 4-6 weeks, from the Animal Breeding Unit of Wenzhou Medical College) were used in the study. These mice were carefully selected out of 350 mice by clinical examination using slit-lamp microscopy and corneal staining. Only those healthy mice with no corneal infections, infiltration or leukom, and with total scores of corneal fluorescein staining of less than 10, were selected for the study.
This study used the ICES-induced murine dry eye model in which relative humidity, airflow and temperature were maintained at 15.7±3.2% (mean±SD), 2.1±0.2 m/s and 21-24° C., respectively, and mice began developing dry eye conditions similar to those in humans from Day 21 post-housing (Chen et al A Murine Model of Dry Eye Induced by an Intelligently Controlled Environmental System. Investigative Ophthalmology & Visual Science, 2008: 49(4):1386-1391). The relative humidity and temperature of ICES systems were monitored daily.
Mice in different groups were labelled using ear marks. The mice were housed in cages (maximum of five animals per cage) and two independent cages were placed in each ICES system. Two schedules were used for topical administration of test compounds, Betaine (0.234% (10 mM) in sterile PBS) or Carnitine (0.25% (10 mM) in sterile PBS), or sterile PBS as a control. Mice without any topical treatment were used as another control. In the first schedule, compounds were administered to mice at the beginning of their housing in ICES (Schedule 1) to study the effect of these compounds on the development of dry eye. In the second schedule compound administration began after mice had been housed in ICES for 21 days (Schedule 2), by which time the dry eye condition had been developed (Chen et al. IOVS 2008), to study the effect of these compounds on treatment of dry eye. Compounds were administered topically to both eyes of the animal. The compound solution made in PBS was topically administered four times daily for up to a total of 35 days for Schedule 1, or 14 days for Schedule 2, during which the mice remained housed in ICES.
Four (4×) mice in each cage received individual treatment: A, B, C, D where A=Betaine (10 mM in PBS); B=Carnitine (10 mM in PBS); C=PBS only; D=No treatment.
The cornea was examined using slit-lamp microscopy with cobalt blue light immediately after fluorescein instillation. The stained area was assessed and graded using the 2007 Dry Eye Work Shop (DEW) recommended grading system. The mouse corneas were rated ranging from 0 to 4 with the cornea surface divided into five regions (0 dot, Grade 0; 1-5 dots, Grade 1; 6-15 dots, Grade 2; 16-30 dots, Grade 3; and […], Grade 4). The total score from the five regions was recorded.

[3] = tested on: IL-17; assay: qRT-PCR of mouse conjunctiva, ICES dry eye model; format: in vivo, C57BL/6 mice; conditions: normalized to GAPDH; for mRNA expression of IL-17 vs PBS treatment group: Schedule 1, Day 21, conjunctiva
Description: (§1) For Schedule 1, six (6×) mice per each group at the end of Day 21 and five (5×) mice from each group at the end of Day 35 post-housing in ICES and undergoing the treatment were sacrificed with an overdose of a mixture of ketamine and xylazine for qRT-PCR evaluation of […] inflammatory responses. On the other hand, for Schedule 2, three (3×) mice were sacrificed at the end of Day 21, and all the other mice were sacrificed at the end of Day 35 post-housing in ICES and undergoing the treatment. Additionally, seven healthy animals which were not housed in ICES and received no treatment were euthanized as healthy controls for comparison.
(§2) For qRT-PCR detection of IL-1β, IL-6, IL-17, TNF-α, and GAPDH, total RNA from conjunctivas (2 eyes/group/schedule) were extracted and pooled from each of the five experimental groups using the RNA isolation kit according to the manufacturer's instructions (PicoPure RNA isolation kit, 40 isolations, Arcturus). cDNA was synthesized from 1-μg of total RNA using random primer and M-MuLV reverse transcriptase. The primer sequences for qRT-PCR detection of these mediators have been designed in preparation for qRT-PCR work (Table 1).
(§3) Expression of IL-1β, IL-6, IL-17, or TNF-α detected at mRNA level from Real-time PCR were normalized to that of the housekeeping gene GAPDH. Total RNA were collected from the pooled conjunctiva from 2 eyes of each group (total 6× eyes per each treatment group were used for qRT-PCR).

[4] = tested on: IL-1β; assay: qRT-PCR of mouse conjunctiva, ICES dry eye model; format: in vivo, C57BL/6 mice; conditions: normalized to GAPDH; for mRNA expression of IL-1β vs PBS treatment group: Schedule 1, Day 21, conjunctiva
Description: as §1, §2, §3

[5] = tested on: IL-6; assay: qRT-PCR of mouse conjunctiva, ICES dry eye model; format: in vivo, C57BL/6 mice; conditions: normalized to GAPDH; for mRNA expression of IL-6 vs PBS treatment group: Schedule 1, Day 21, conjunctiva
Description: as §1, §2, §3

[6] = tested on: TNF-α; assay: qRT-PCR of mouse conjunctiva, ICES dry eye model; format: in vivo, C57BL/6 mice; conditions: normalized to GAPDH; for mRNA expression of TNF-α vs PBS treatment group: Schedule 1, Day 21, conjunctiva
Description: as §1, §2, §3

[7] = Schedule 1, Day 14, 10 mM in PBS topically four times daily
[8] = Schedule 1, Day 21, 10 mM in PBS topically four times daily
[9] = Schedule 2, Day 35, conjunctiva

| SMILES | betaine concentration not toxic to the cells ([1]; titration 0-200 mM, 300 mOsm medium, 16 h, MTT) | corneal staining vs control C (PBS only) or D (no treatment) [2, 7] | corneal staining vs control C (PBS only) or D (no treatment) [2, 8] | corneal staining from Day 21 to Day 35 [2] | mRNA expression of IL-17 vs PBS treatment group [3] | mRNA expression of IL-1β vs PBS treatment group [4] | mRNA expression of IL-6 vs PBS treatment group [5] | mRNA expression of TNF-α vs PBS treatment group [6] | mRNA expression of TNF-α vs PBS control (C) [6, 9] | concentration optimal to carry out osmoprotective studies (cell viability analysis) ([1]; toxicity of various concentrations) [mM] | corneal staining vs control C or D ([2]; Schedule 1, Day 35, 10 mM in PBS topically four times daily) | corneal staining vs controls C or D ([2]; Schedule 2 (treatment from Day 22 after dry eye developed), Day 35) | mRNA expression of IL-17 vs PBS treatment group ([3]; listed as B) | mRNA expression of IL-17 vs PBS control (C) [3, 9] | mRNA expression of IL-1β vs PBS treatment group ([4]; listed as B) | mRNA expression of IL-1β vs PBS control (C) [4, 9] | mRNA expression of IL-6 vs PBS treatment group ([5]; listed as B) | mRNA expression of IL-6 vs PBS control (C) [5, 9] | mRNA expression of TNF-α vs PBS treatment group ([6]; listed as B) |
| --- | --- | --- | --- | --- | --- | --- | --- | --- | --- | --- | --- | --- | --- | --- | --- | --- | --- | --- | --- |
| C[N+](C)(C)CC(=O)[O-] [betaine, trimethylglycine] | up to 40 mM | statistically significant reduction | statistically significant reduction | statistically significant reduction | statistically significant reduction | statistically significant reduction | statistically significant reduction | statistically significant reduction | statistically significant reduction | – | – | – | – | – | – | – | – | – | – |
| C[N+](C)(C)CC(O)CC(=O)[O-] (stereo not shown) [carnitine, 3-hydroxy-4-(trimethylazaniumyl)butanoate] | – | statistically significant reduction | statistically significant reduction | statistically significant reduction | – | – | – | – | – | 10 | reduced corneal staining | statistically significant reduction | statistically significant reduction; also recorded: lowest expression level | statistically significant reduction | statistically significant reduction; also recorded: lowest expression level | statistically significant reduction | statistically significant reduction; also recorded: lowest expression level | statistically significant reduction | statistically significant reduction; also recorded: lowest expression level |

Reference: US10912752B2, “Methods and compositions for reducing ocular discomfort” (Brien Holden Vision Institute Limited, priority 2012, dated 2021)
